The source of these data is article PMC4468025 (Biochemical pharmacology, 2015).

“Also recorded” adds a separate entry of the source. Where two headings read alike, the source gives them in different places.

Assay [1] relates to anthrax toxin (PA + LF) cytotoxicity in RAW264.7 cells. In kind it is cell-based, murine.
In assay [2] the test system is PC1/3. In words: PC1/3 inhibition. It counts as biochemical. Conditions: for inhibition of PC1/3 (in words): 10 µM; for inhibition of PC1/3: 100 µM.
The subject of assay [3] is HT1080 fibrosarcoma cells. In words: HT1080 cell migration assay. In kind it is cell-based, human. The conditions noted are these: for inhibition at 100 µM: Homo sapiens, HT-1080, 24 h, read-out: inhibition of HT1080 cell migration, 100 µM, 24 h.
Assay [4] has as its system Pseudomonas aeruginosa exotoxin A cytotoxicity in CHO DG44 cells. In words: Pseudomonas exotoxin A assay. In kind it is cell-based, Chinese hamster.
For assay [5], the system named is skin tumor. The conditions noted are these: cited from earlier work.
Assay [6] deals with furin. The conditions noted are these: Ki values taken from the literature; cited from earlier work.
In assay [7] the test system is PC5. Conditions: cited from earlier work.
Assay [8] relates to Golgi furin in CHO-GRAPfurin cells. In words: SEAP activity assay in CHO-GRAPfurin cells. Conditions: 100 µM, 20–24 h. In kind it is cell-based, Chinese hamster.
In assay [9] the test system is PACE4. Conditions: cited from earlier work.
Assay [10] deals with Soluble human furin (Homo sapiens, UniProt P09958). The assay can be described thus: Furin enzyme assay, IC50 and Ki determination.
Assay [11] has as its system human fibrosarcoma HT1080 cells. Conditions: by inhibiting proMT1-MMP processing; cited from earlier work.
[12] abbreviates: concentration not stated in the sentence (10 and 100 µM tested).

Sequence of Soluble human furin (P09958 108-715 limits assumed): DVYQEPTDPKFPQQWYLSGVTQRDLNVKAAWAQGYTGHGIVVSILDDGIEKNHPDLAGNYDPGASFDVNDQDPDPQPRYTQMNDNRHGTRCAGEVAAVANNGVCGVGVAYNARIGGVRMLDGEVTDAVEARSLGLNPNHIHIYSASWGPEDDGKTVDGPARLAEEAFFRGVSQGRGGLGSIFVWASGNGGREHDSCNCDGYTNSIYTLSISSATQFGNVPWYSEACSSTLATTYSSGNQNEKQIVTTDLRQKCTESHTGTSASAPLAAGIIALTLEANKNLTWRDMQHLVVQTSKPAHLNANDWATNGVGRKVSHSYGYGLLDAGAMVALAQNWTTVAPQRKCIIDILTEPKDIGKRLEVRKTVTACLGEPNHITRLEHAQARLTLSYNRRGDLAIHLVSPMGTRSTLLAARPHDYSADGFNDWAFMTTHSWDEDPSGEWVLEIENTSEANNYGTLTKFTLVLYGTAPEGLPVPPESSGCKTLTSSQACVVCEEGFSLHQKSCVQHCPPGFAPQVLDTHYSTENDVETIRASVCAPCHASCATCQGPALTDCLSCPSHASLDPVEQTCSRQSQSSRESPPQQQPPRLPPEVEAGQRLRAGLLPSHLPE

In the case of `N=C(N)Nc1ccc(OCCCOc2ccc(NC(=N)N)cc2NC(=N)N)c(NC(=N)N)c1` [2d, 1,3-bis(2,4-diguanidinophenoxy)propane], in assay [1] (100 µM inhibitor, 2 h), the “protection against anthrax toxicity (in words)” value was “excellent protection”. Besides, in [2], the “inhibition of PC1/3 (in words)” value is given as “no inhibition detected” and the “inhibition of PC1/3” value was 51%. In addition, the “inhibition of HT1080 cell migration” value in assay [3] (100 µM, 24 h) is on record as “around 40%”. The “protection against Pseudomonas exotoxin A (in words)” value in [4] (setting [12]) is on record as “good protection”.
In the case of dec-RVKR-CMK, in assay [5], the “skin tumor progression (in words)” value is recorded as “decreases skin tumor progression”.
Consider `N=C(N)Nc1ccc(OC2CC(Oc3ccc(NC(=N)N)cc3)C(NC(=N)N)CC2NC(=N)N)cc1` (centres unmarked) [compound 1g, 1,1'-(4,6-bis(4-guanidinophenoxy)cyclohexane-1,3-diyl)diguanidine], for which the “protection against anthrax toxicity (in words)” value is listed as “complete inhibition of anthrax toxicity” in assay [1] (10 µM inhibitor, 2 h) and “efficiently protected cells against anthrax; also recorded: potently prevented anthrax toxicity” in [1] (setting [12]). Moreover, the “potency against furin in vitro (in words)” value in [6] was “nanomolar potency”. Besides, the “cross-inhibition of PC5 (in words)” value in assay [7] is on record as “substantial cross-inhibition”. For the same compound, the “inhibition of intracellular (TGN) furin, SEAP release (in words)” value (“inhibition of intracellular (TGN) furin” below) in [8] is “unable to inhibit”. The “cross-inhibition of PACE4 (in words)” value in [9] is “substantial cross-inhibition”. In assay [3] (100 µM, 24 h), the “inhibition of cell migration (in words)” value is recorded as “did not inhibit cell migration; also recorded: unable to inhibit”. In [4] (setting [12]), the “protection against Pseudomonas exotoxin A (in words)” value is “only moderate protection; also recorded: modest effect”.
As for `N=C(N)Nc1ccc(O[C@@H]2CCC[C@H](Oc3ccc(NC(=N)N)cc3NC(=N)N)C2)c(NC(=N)N)c1` [2e, cis-1,3-bis(2,4-diguanidinophenoxy)cyclohexane], the “protection against anthrax toxicity (in words)” value in [1] (100 µM inhibitor, 2 h) is given as “excellent protection”. Besides, in assay [2], the “inhibition of PC1/3 (in words)” value was “no inhibition detected” and the “inhibition of PC1/3” value was 38%. Also, the inhibition at 100 µM in assay [3] lay in the range of 20 to 25%. Also, in assay [4] (setting [12]), the “protection against Pseudomonas exotoxin A (in words)” value is “good protection”.
On to `N=C(N)Nc1ccc(Oc2cccc(Oc3ccc(NC(=N)N)cc3NC(=N)N)c2)c(NC(=N)N)c1` [compound 2f, 1,3-bis(2,4-diguanidinophenoxy)benzene], for which the “protection against anthrax toxicity (in words)” value in assay [1] (10 µM inhibitor, 2 h) was “almost complete protection; also recorded: complete inhibition of anthrax toxicity”; in [1] (100 µM inhibitor, 2 h), “excellent protection”; in [1] (setting [12]), “highly efficient protection”. The “inhibition of furin in vitro (in words)” value in [10] is “micromolar potency”. Besides, the “inhibition of intracellular (TGN) furin” value in assay [8] was “only slightly inhibited”. Moreover, the inhibition at 100 µM in [3] was in the range of 20 to 25%. Also, the “protection against Pseudomonas exotoxin A (in words)” value in [4] (setting [12]) is “good protection”.
Turning to naphthofluorescein disodium salt [B3], the “cell mobility and invasiveness of HT1080 cells (in words)” value in assay [11] was “prevented cell mobility and invasiveness”.
In the case of `N=C(N)Nc1ccc(OCCCOc2ccc(NC(=N)N)cc2)cc1` [compound 2a, 1,3-bis(4-guanidinophenoxy)propane], in [1] (100 µM inhibitor, 2 h), the “protection against anthrax toxicity (in words)” value was “unable to block anthrax toxicity”. Besides, the “inhibition of cell migration (in words)” value in assay [3] (100 µM, 24 h) is on record as “inhibited migration”. The inhibition at 100 µM in [3] was ~40%.
As for `N=C(N)Nc1ccc(O[C@@H]2CCC[C@H](Oc3ccc(NC(=N)N)cc3)C2)cc1` [2b, cis-1,3-bis(4-guanidinophenoxy)cyclohexane], in assay [3] (100 µM, 24 h), the “inhibition of cell migration (in words)” value is “inhibited migration”. For the same compound, in assay [3], the inhibition at 100 µM is ~40%.
Turning to `N=C(N)Nc1ccc(Oc2cccc(Oc3ccc(NC(=N)N)cc3)c2)cc1` [compound 2c, 1,3-bis(4-guanidinophenoxy)benzene], the “inhibition of cell migration (in words)” value in [3] (100 µM, 24 h) is reported as “the most potent inhibitor; also recorded: inhibited migration; also recorded: completely inhibited cell mobility”.
For `N=C(N)Nc1ccc(OC2CC(Oc3ccc(NC(=N)N)cc3NC(=N)N)C(NC(=N)N)CC2NC(=N)N)cc1` (centres unmarked) [compound 1b, 1,1'-(4-((2,4-diguanidino-5-(4-guanidinophenoxy)cyclohexyl)oxy)-1,3-phenylene)diguanidine], the “protection against anthrax toxicity (in words)” value was “complete inhibition of anthrax toxicity” in [1] (10 µM inhibitor, 2 h); “protect cells against Bacillus anthracis (anthrax); also recorded: capable of blocking both Pseudomonas and anthrax toxemia at low doses” in assay [1] (setting [12]). The “potency against furin in vitro (in words)” value in assay [6] was “nanomolar potency”. The “inhibition of intracellular (TGN) furin” value in [8] is listed as “block release of a Golgi reporter; also recorded: able to inhibit intracellular furin; also recorded: able to inhibit TGN furin”. The “inhibition of cell migration (in words)” value in assay [3] (100 µM, 24 h) was “retard tumor cell migration; also recorded: good inhibitors of cell migration; also recorded: inhibited cell migration”. The inhibition at 100 µM in assay [3] was determined as 35%. Moreover, the “protection against Pseudomonas exotoxin A (in words)” value is “completely prevent Pseudomonas toxin cytotoxicity” in [4] (10 µM inhibitor, 20–24 h); “protect cells against Bacillus anthracis (anthrax) and Pseudomonas aeruginosa intoxication; also recorded: capable of blocking both Pseudomonas and anthrax toxemia at low doses” in [4] (setting [12]).
